Data as given in PubChem BioAssay (NCI).
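Following 48 hours of exposure in 96-well plates, responses at five concentrations were used to interpolate endpoints linearly. At the GI50, growth is halved. TGI: concentration producing complete growth inhibition.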

Tests used:
Assay in all cases: NCI-60 cell line screen, 48 h
HCT-15 colon = system: HCT-15 colon
SF-539 CNS = system: SF-539 CNS
NCI-H522 lung = system: NCI-H522 lung
T-47D breast = system: T-47D breast
SK-MEL-2 melanoma = system: SK-MEL-2 melanoma
A498 renal = system: A498 renal
SF-268 CNS = system: SF-268 CNS
MDA-MB-435 = system: MDA-MB-435
IGROV1 ovarian = system: IGROV1 ovarian
NCI-H23 lung = system: NCI-H23 lung
CAKI-1 renal = system: CAKI-1 renal
HCC-2998 colon = system: HCC-2998 colon
SW-620 colon = system: SW-620 colon
UO-31 renal = system: UO-31 renal
RPMI-8226 leukemia = system: RPMI-8226 leukemia
ACHN renal = system: ACHN renal
HCT-116 colon = system: HCT-116 colon
NCI-H226 lung = system: NCI-H226 lung
COLO 205 colon = system: COLO 205 colon
RXF 393 renal = system: RXF 393 renal
NCI-H460 lung = system: NCI-H460 lung
786-0 renal = system: 786-0 renal
HOP-92 NSCLC = system: HOP-92 NSCLC
SK-MEL-5 melanoma = system: SK-MEL-5 melanoma
SN12C renal = system: SN12C renal
HOP-62 NSCLC = system: HOP-62 NSCLC
M14 melanoma = system: M14 melanoma
HT29 colon = system: HT29 colon

SMILES: COc1ccc(C2C=C(c3ccc(OC)c(OC)c3)N=C3SC=CN32)c(Br)c1 (stereo unspecified)
- GI50 (HCT-15 colon): 1760 nM
- TGI (HCT-15 colon): 5.13 µM
- GI50 (SF-539 CNS): 1870 nM
- TGI (SF-539 CNS): 4.18 µM
- GI50 (NCI-H522 lung): 3.11 µM
- TGI (NCI-H522 lung): 11.7 µM
- GI50 (T-47D breast): 3.2 µM
- TGI (T-47D breast): 11.5 µM
- GI50 (SK-MEL-2 melanoma): 14.4 µM
- TGI (SK-MEL-2 melanoma): 29.8 µM
- GI50 (A498 renal): 3.47 µM
- TGI (A498 renal): 17.1 µM
- GI50 (SF-268 CNS): 3.42 µM
- TGI (SF-268 CNS): 14.3 µM
- GI50 (MDA-MB-435): 2800 nM
- TGI (MDA-MB-435): 10.5 µM
- GI50 (IGROV1 ovarian): 2250 nM
- TGI (IGROV1 ovarian): 5.51 µM
- GI50 (NCI-H23 lung): 9.45 µM
- TGI (NCI-H23 lung): 27.3 µM
- GI50 (CAKI-1 renal): 13.4 µM
- TGI (CAKI-1 renal): 33.8 µM
- GI50 (HCC-2998 colon): 2020 nM
- TGI (HCC-2998 colon): 3.71 µM
- GI50 (SW-620 colon): 1850 nM
- TGI (SW-620 colon): 3.77 µM
- GI50 (UO-31 renal): 1540 nM
- TGI (UO-31 renal): 3.77 µM
- GI50 (RPMI-8226 leukemia): 1770 nM
- TGI (RPMI-8226 leukemia): 5.98 µM
- GI50 (ACHN renal): 2000 nM
- TGI (ACHN renal): 4.33 µM
- GI50 (HCT-116 colon): 1520 nM
- TGI (HCT-116 colon): 3.25 µM
- GI50 (NCI-H226 lung): 2840 nM
- TGI (NCI-H226 lung): 25.5 µM
- GI50 (COLO 205 colon): 4.56 µM
- TGI (COLO 205 colon): 16.4 µM
- GI50 (RXF 393 renal): 2080 nM
- TGI (RXF 393 renal): 3.98 µM
- GI50 (NCI-H460 lung): 5.15 µM
- TGI (NCI-H460 lung): 25.8 µM
- GI50 (786-0 renal): 2720 nM
- TGI (786-0 renal): 8.22 µM
- GI50 (HOP-92 NSCLC): 8.66 µM
- TGI (HOP-92 NSCLC): 38.3 µM
- GI50 (SK-MEL-5 melanoma): 3.02 µM
- TGI (SK-MEL-5 melanoma): 10.1 µM
- GI50 (SN12C renal): 4.77 µM
- TGI (SN12C renal): 21.2 µM
- GI50 (HOP-62 NSCLC): 3.16 µM
- TGI (HOP-62 NSCLC): 11.1 µM
- GI50 (M14 melanoma): 2230 nM
- TGI (M14 melanoma): 5.32 µM
- GI50 (HT29 colon): 2020 nM
- TGI (HT29 colon): 4.26 µM
